{"source": "patent US20240108641A1", "about": "“COMPOSITIONS FOR ORAL ADMINISTRATION OF ZOLEDRONIC ACID OR RELATED COMPOUNDS FOR TREATING DISEASE” (ANTECIP BIOVENTURES II LLC, priority 2012, published 2024)", "key": {"[1]": {"test_system": "complex regional pain syndrome (CRPS)", "experiment": "rat tibia fracture model of complex regional pain syndrome, dosing from day of fracture", "type": "in vivo", "protocol": "The effect of orally administered zoledronic acid was examined in the rat tibia fracture model of complex regional pain syndrome (CRPS). CRPS was induced in the rats by fracturing the right distal tibias of the animals and casting the fractured hindpaws for 4 weeks, as described in Guo T Z et al. (Pain. 2004; 108: 95-107).\nAnimals were orally administered either vehicle (control) or zoledronic acid, in a dosage of 18 mg/m^2/day (3 mg/kg/day) for 28 days, starting on the day of fracture and casting. Drug was dissolved in distilled water and administered by gavage. Animals were fasted for 4 hours before and 2 hours after dosing. At the end of the 28-day period, casts were removed, and on the following day, the rats were tested for hindpaw pain, edema, and warmth.\nPain was assessed by measuring hyperalgesia, and weight bearing.\nTo measure hyperalgesia, an up-down von Frey testing paradigm was used. Rats were placed in a clear plastic cylinder (20 cm in diameter) with a wire mesh bottom and allowed to acclimate for 15 minutes. The paw was tested with one of a series of eight von Frey hairs ranging in stiffness from 0.41 g to 15.14 g. The von Frey hair was applied against the hindpaw plantar skin at approximately midsole, taking care to avoid the tori pads. The fiber was pushed until it slightly bowed and then it was jiggled in that position for 6 seconds. Stimuli were presented at an interval of several seconds. Hindpaw withdrawal from the fiber was considered a positive response. […]\nAn incapacitance device (IITC Inc. Life Science, Woodland, CA, USA) was used to measure hindpaw weight bearing, a postural effect of pain. […] Eight readings (excluding the highest and lowest ones) were averaged to calculate the bilateral hindpaw weight-bearing values. Weight bearing data were analyzed as the ratio between right (fracture) and left hindpaw weight bearing values ((2R/(R+L))×100%). […]\nThe temperature of the hindpaw was measured using a fine wire thermocouple (Omega, Stanford, CT, USA) applied to the paw skin. […]"}, "[2]": {"test_system": "inflammatory pain (mechanical hyperalgesia)", "type": "in vivo, Sprague-Dawley rats", "protocol": "The effect of orally administered zoledronic acid on inflammatory pain was examined using the rat complete Freund's adjuvant (CFA) model. Inflammatory pain was induced by injection of 100% CFA in a 75 μL volume into the left hind paws of Sprague-Dawley® rats on day 0, followed by assessments on days 1-3. Animals were orally administered vehicle (control), zoledronic acid 18 mg/m^2 (or 3 mg/kg), zoledronic acid 120 mg/m^2 (or 20 mg/kg), or zoledronic acid 900 mg/m^2 (or 150 mg/kg) daily on days 1-3. Drug was dissolved in distilled water and prepared fresh daily. Animals were fasted prior to dosing. Under current FDA guidelines for extrapolating starting dosages from animals to humans, dosages expressed in mg/m^2 are considered equivalent between mammalian species. Thus, for example, 18 mg/m^2 in a rat is considered equivalent to 18 mg/m^2 in a human being, while 3 mg/kg in a rat may not be equivalent to 3 mg/kg in a human being.\nValues for inflammatory pain (mechanical hyperalgesia) in the vehicle and drug-treated animals were obtained on day 0 prior to CFA injection, and at baseline and post-treatment on days 1-3. Pain was assessed using a digital Randall-Selitto device (dRS; IITC Life Sciences, Woodland Hills, CA). Animals were placed in a restraint sling that suspended the animal, leaving the hind limbs available for testing. Paw compression threshold was measured by applying increasing pressure to the plantar surface of the hind paw with a dome-shaped tip placed between the 3rd and 4th metatarsus. Pressure was applied gradually over approximately 10 seconds. Measurements were taken from the first observed nocifensive behavior of vocalization, struggle or withdrawal. A cut-off value of 300 g was used to prevent injury to the animal.\nReversal of inflammatory pain was calculated according to the formula:\n% reversal=(Post-treatment−Post-CFA baseline)/(Pre-CFA baseline−Post-CFA baseline)×100.\nThe experiment was carried out using 9-10 animals per group."}, "[3]": {"settings": "18 mg/m^2/day oral for 28 days from fracture"}}, "data": [{"smiles": "O=P(O)(O)C(O)(Cn1ccnc1)P(=O)(O)O", "note": "[zoledronic acid]", "values": [{"measurement": "overall effect compared to vehicle treated animals", "setting": "[1]; 18 mg/m^2/day (3 mg/kg/day) oral for 28 days from fracture", "result": "reversed pain, restored weight bearing, and prevented edema"}, {"measurement": "hindlimb weight bearing", "setting": "[1]; [3]", "result": "86 % of normal"}, {"measurement": "reversal of fracture induced pain (von Frey) as compared to vehicle", "setting": "[1]; [3]", "result": 77, "unit": "%"}, {"measurement": "paw compression thresholds compared to vehicle", "setting": "[2]; 120 mg/m^2 (20 mg/kg) oral daily, all time points", "result": "approximately equal or inferior to vehicle"}, {"measurement": "toxicity", "setting": "[2]; 900 mg/m^2 oral daily days 1-3, euthanization of all animals two days after cessation of dosing", "result": "significant toxicity"}, {"measurement": "inflammatory pain thresholds compared to vehicle", "setting": "[2]; oral administration", "result": "significantly improved"}]}]}
